Data taken from ChEMBL document CHEMBL5154927, “Discovery of Novel Bicyclic Phenylselenyl-Containing Hybrids: An Orally Bioavailable, Potential, and Multiacting Class of Estrogen Receptor Modulators against Endocrine-Resistant Breast Cancer” (J Med Chem, 2022).
The source made the active and inactive calls. No cut-off for these calls is given here.

Legend:
MCF7 [1] = test: cells; conditions: Homo sapiens, MCF7, 72 h
Description: Antiproliferative activity against human MCF7 cells assessed as reduction in cell viability measured after 72 hrs by Cell Counting Kit-8 assay

[2] = Selectivity index, ratio of IC50 for human MCF-10A cells to IC50 for human MCF-7 cells; format: toxicity; conditions: MCF-10A cells and MCF-7 cells, read-out: Ratio IC50
[3] = Antiproliferative activity against human MCF-10A cells assessed as reduction in cell viability measured after 72 hrs by Cell Counting Kit-8 assay; format: toxicity, cell-based
MDA-MB-231 = test: cells; conditions: Homo sapiens, MDA-MB-231, 72 h
Description: Antiproliferative activity against human MDA-MB-231 cells assessed as reduction in cell viability measured after 72 hrs by Cell Counting Kit-8 assay

[4] = Antiproliferative activity against tamoxifen-resistant human LCC2 cells assessed as reduction in cell viability measured after 72 hrs by Cell Counting Kit-8 assay; format: functional, cell-based; conditions: LCC2, 72 h
MCF7 [5] = test: Antitumor activity against human MCF7 cells xenografted in BALB/C mouse assessed as decrease in cell proliferation at 20 mg/kg, po by Ki67 staining based immunohistochemical analysis; format: functional, organism-based
MCF7 [6] = test: Antitumor activity against human MCF7 cells xenografted in BALB/C mouse assessed as increase in tumor necrosis area at 20 mg/kg, po […]; format: functional, organism-based
[7] = biological target: T1, Hexokinase-1 (Homo sapiens) (UniProt P19367); test: Binding affinity to hexokinase-1 in human MCF7 cell lysate assessed as HK-1 pull down by western blotting based Co-immunoprecipitation assay; format: subcellular; conditions: filed as antagonist
T1 sequence (whole entry): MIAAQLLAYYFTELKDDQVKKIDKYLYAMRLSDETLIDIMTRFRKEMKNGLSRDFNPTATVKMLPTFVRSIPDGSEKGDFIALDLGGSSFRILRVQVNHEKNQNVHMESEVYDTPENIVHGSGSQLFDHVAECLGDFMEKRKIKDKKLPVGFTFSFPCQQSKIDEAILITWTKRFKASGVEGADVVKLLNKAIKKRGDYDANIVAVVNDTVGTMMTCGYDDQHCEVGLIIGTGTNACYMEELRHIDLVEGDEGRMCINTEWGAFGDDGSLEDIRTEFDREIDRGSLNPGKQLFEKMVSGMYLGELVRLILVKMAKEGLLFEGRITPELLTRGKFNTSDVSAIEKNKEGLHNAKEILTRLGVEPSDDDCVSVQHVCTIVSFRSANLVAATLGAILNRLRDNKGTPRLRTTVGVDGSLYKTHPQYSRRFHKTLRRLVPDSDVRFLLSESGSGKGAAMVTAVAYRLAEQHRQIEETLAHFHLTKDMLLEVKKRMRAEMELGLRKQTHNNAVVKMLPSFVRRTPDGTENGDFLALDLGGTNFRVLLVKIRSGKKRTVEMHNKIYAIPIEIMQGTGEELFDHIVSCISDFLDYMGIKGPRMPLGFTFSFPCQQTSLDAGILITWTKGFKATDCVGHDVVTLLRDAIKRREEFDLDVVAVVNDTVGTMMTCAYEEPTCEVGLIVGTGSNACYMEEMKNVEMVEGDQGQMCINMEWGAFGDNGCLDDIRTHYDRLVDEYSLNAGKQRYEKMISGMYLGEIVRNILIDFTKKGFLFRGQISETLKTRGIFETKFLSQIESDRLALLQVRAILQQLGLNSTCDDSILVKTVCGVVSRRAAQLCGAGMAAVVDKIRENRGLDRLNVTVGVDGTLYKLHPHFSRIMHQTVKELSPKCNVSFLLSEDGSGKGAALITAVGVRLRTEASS

[8] = biological target: Estrogen receptor beta (Homo sapiens) (UniProt Q92731); test: Relative binding affinity to human ERbeta measured after 2 hrs by competitive fluorometric binding assay relative to estradiol
Homo sapiens = species on record: Homo sapiens; test: Selectivity ratio of relative binding affinity for human ERalpha to relative binding affinity for human ERbeta
MCF7 [9] = test: Induction of apoptosis in human MCF7 cells at 20 uM incubated for 48 hrs by annexin V-FITC staining based flow cytometry; format: functional, cell-based

Estrogen receptor beta (Homo sapiens), sequence (Q92731 whole entry): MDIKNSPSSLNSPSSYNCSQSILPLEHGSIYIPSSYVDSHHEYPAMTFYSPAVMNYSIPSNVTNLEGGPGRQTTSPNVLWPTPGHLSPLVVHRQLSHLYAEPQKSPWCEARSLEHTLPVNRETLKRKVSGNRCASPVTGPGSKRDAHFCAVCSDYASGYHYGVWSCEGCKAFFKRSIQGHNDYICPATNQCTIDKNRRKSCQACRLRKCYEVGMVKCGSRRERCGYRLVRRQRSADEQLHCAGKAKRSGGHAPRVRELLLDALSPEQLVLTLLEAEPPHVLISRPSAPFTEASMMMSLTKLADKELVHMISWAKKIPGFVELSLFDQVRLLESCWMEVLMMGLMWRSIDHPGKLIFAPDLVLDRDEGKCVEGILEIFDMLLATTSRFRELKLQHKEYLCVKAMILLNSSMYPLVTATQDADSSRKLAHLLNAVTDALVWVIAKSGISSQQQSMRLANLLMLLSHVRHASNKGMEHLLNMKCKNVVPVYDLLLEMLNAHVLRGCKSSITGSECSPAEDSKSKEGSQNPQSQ

| IC50 (MCF7 [1]) [nM] | IC50 (MDA-MB-231) [µM] | Activity [7] | RBA [8] [%] | Ratio (Homo sapiens) | SMILES | selectivity ratio [2] | IC50 at 72 h [3] [µM] | IC50 [4] [µM] | Activity (MCF7 [5]) | Activity (MCF7 [6]) | Activity (MCF7 [9]) |
| --- | --- | --- | --- | --- | --- | --- | --- | --- | --- | --- | --- |
| 120 | 12.6 | – | – | – | Cc1cccc(OS(=O)(=O)C2CC3OC2C(c2ccc([Se]c4ccccc4)cc2)=C3c2ccc(O)cc2)c1 (centres undefined) | 255 | 30.6 | 8.42 | – | – | – |
| – | – | – | – | – | CC/C(=C(\c1ccccc1)c1ccc(OCCN(C)C)cc1)c1ccccc1 | – | – | – | Active | Active | – |
| 7460 | > 60 | – | – | – | COc1ccc(OS(=O)(=O)C2CC3OC2C(c2ccc(O)cc2)=C3c2ccc([Se]c3ccccc3)cc2)cc1 (centres undefined) | > 8.04 | > 60 | – | – | – | – |
| 1130 | 45.5 | – | – | – | O=S(=O)(Oc1cccc2ccccc12)C1CC2OC1C(c1ccc(O)cc1)=C2c1ccc([Se]c2ccccc2)cc1 (centres undefined) | > 53.1 | > 60 | – | – | – | – |
| 1710 | 25.6 | – | – | – | O=S(=O)(Oc1cccc([Se]c2ccccc2)c1)C1CC2OC1C(c1ccc(O)cc1)=C2c1ccc(O)cc1 (centres undefined) | 29.4 | 50.3 | > 31 | – | – | – |
| 450 | 27.5 | – | – | – | O=S(=O)(Oc1ccc(C(F)(F)F)cc1)C1CC2OC1C(c1ccc([Se]c3ccccc3)cc1)=C2c1ccc(O)cc1 (centres undefined) | 41.2 | 18.5 | – | – | – | – |
| 310 | 18.3 | – | – | – | O=S(=O)(Oc1ccc(Br)cc1)C1CC2OC1C(c1ccc([Se]c3ccccc3)cc1)=C2c1ccc(O)cc1 (centres undefined) | 90.8 | 28.2 | 25 | – | – | – |
| 540 | 16.8 | – | – | – | O=S(=O)(Oc1cccc(C(F)(F)F)c1)C1CC2OC1C(c1ccc([Se]c3ccccc3)cc1)=C2c1ccc(O)cc1 (centres undefined) | 75.9 | 41 | 8.76 | – | – | – |
| – | – | Active | 0.1 | 3.4 | O=C(CCC[C@@H]1SC[C@@H]2NC(=O)N[C@@H]21)Nc1cccc2c(OS(=O)(=O)C3CC4OC3C(c3ccc(O)cc3)=C4c3ccc(O)cc3)cccc12 (some centres undefined) | – | – | – | – | – | – |
| 1360 | 19.2 | – | – | – | O=S(=O)(Oc1cccc(Br)c1)C1CC2OC1C(c1ccc([Se]c3ccccc3)cc1)=C2c1ccc(O)cc1 (centres undefined) | 12.7 | 17.3 | > 31 | – | – | – |
| 14600 | 32.3 | – | – | – | O=S(=O)(Oc1ccccc1)C1CC2OC1C(c1ccc(O)cc1)=C2c1ccc(O)cc1 (centres undefined) | > 4.11 | > 60 | > 31 | – | – | Active |
| 150 | 22 | – | – | – | O=S(=O)(Oc1ccc(C(F)(F)F)cc1)C1CC2OC1C(c1ccc(O)cc1)=C2c1ccc([Se]c2ccccc2)cc1 (centres undefined) | 94.3 | 14.1 | > 31 | – | – | – |
| 410 | 8.49 | – | – | – | Cc1ccc(OS(=O)(=O)C2CC3OC2C(c2ccc([Se]c4ccccc4)cc2)=C3c2ccc(O)cc2)cc1 (centres undefined) | 45.1 | 18.5 | 6.82 | – | – | – |
| 140 | 11 | – | – | – | O=S(=O)(Oc1ccc(Cl)cc1)C1CC2OC1C(c1ccc([Se]c3ccccc3)cc1)=C2c1ccc(O)cc1 (centres undefined) | 186 | 26.1 | 6.88 | – | – | – |
| 370 | 11 | – | – | – | O=S(=O)(Oc1ccc(Cl)cc1)C1CC2OC1C(c1ccc(O)cc1)=C2c1ccc([Se]c2ccccc2)cc1 (centres undefined) | 86.4 | 32 | 6.64 | – | – | – |
| 70 | 7.13 | – | – | – | O=S(=O)(Oc1cccc(O)c1)C1CC2OC1C(c1ccc(O)cc1)=C2c1ccc([Se]c2ccccc2)cc1 (centres undefined) | 106 | 7.41 | 2.88 | – | – | – |
| 160 | > 60 | – | – | – | O=S(=O)(Oc1ccccc1)C1CC2OC1C(c1ccc(O)cc1)=C2c1ccc([Se]c2ccccc2)cc1 (centres undefined) | > 375 | > 60 | – | – | – | – |
| 800 | 31.6 | – | – | – | O=S(=O)(Oc1ccc([Se]c2ccccc2)cc1)C1CC2OC1C(c1ccc(O)cc1)=C2c1ccc(O)cc1 (centres undefined) | > 75 | > 60 | 20.5 | – | – | – |
| 1960 | 12.2 | – | – | – | O=S(=O)(Oc1ccc(O)cc1)C1CC2OC1C(c1ccc(O)cc1)=C2c1ccc([Se]c2ccccc2)cc1 (centres undefined) | 8.54 | 16.7 | > 31 | – | – | – |
| 180 | 41.9 | – | – | – | O=S(=O)(Oc1cccc(Cl)c1)C1CC2OC1C(c1ccc([Se]c3ccccc3)cc1)=C2c1ccc(O)cc1 (centres undefined) | 97.8 | 17.6 | > 31 | – | – | – |
| 550 | 17.4 | – | – | – | O=S(=O)(Oc1ccc(Br)cc1)C1CC2OC1C(c1ccc(O)cc1)=C2c1ccc([Se]c2ccccc2)cc1 (centres undefined) | 75.6 | 43.2 | > 31 | – | – | – |
| 210 | 9.71 | – | – | – | COc1ccc(OS(=O)(=O)C2CC3OC2C(c2ccc([Se]c4ccccc4)cc2)=C3c2ccc(O)cc2)cc1 (centres undefined) | 138 | 29.1 | 5.92 | – | – | – |
| 3980 | 8.05 | – | – | – | Cc1ccc(OS(=O)(=O)C2CC3OC2C(c2ccc(O)cc2)=C3c2ccc([Se]c3ccccc3)cc2)cc1 (centres undefined) | 4.6 | 18.3 | 6.08 | – | – | – |
| 660 | 10.5 | – | – | – | COc1cccc(OS(=O)(=O)C2CC3OC2C(c2ccc(O)cc2)=C3c2ccc([Se]c3ccccc3)cc2)c1 (centres undefined) | 27.1 | 17.9 | 4.8 | – | – | – |

| SMILES | IC50 (MCF7 [1]) [nM] | IC50 (MDA-MB-231) [µM] | Activity [7] | RBA [8] [%] | Ratio (Homo sapiens) | selectivity ratio [2] | IC50 at 72 h [3] [µM] | IC50 [4] [µM] | Activity (MCF7 [5]) | Activity (MCF7 [6]) | Activity (MCF7 [9]) |
| --- | --- | --- | --- | --- | --- | --- | --- | --- | --- | --- | --- |
| CC/C(=C(\c1ccc(O)cc1)c1ccc(OCCN(C)C)cc1)c1ccccc1 [AFIMOXIFENE] | – | 18.4 | – | – | – | – | – | 22.2 | – | – | – |
